How the values were obtained:
[1] = test system: COX-2 mRNA expression in LPS-induced RAW 264.7 mouse macrophage cells; experiment: Inhibition of LPS-induced COX-2 mRNA expression (RT-PCR); format: cell-based; conditions: for inhibition of COX-2 mRNA expression (in words): within the concentration ranges assayed; for inhibition of COX-2 mRNA expression: 12 hrs
Procedure: (§1) Total RNA was isolated using Tri-reagent (Sigma, MO, USA) and 5 μg of this RNA was reverse transcribed to make cDNA using random hexamers and Superscript™ reverse transcriptase (Invitrogen, CA, USA) according to the manufacturer's instructions. The linear range of amplification of iNOS and COX-2 cDNA was determined using gene specific primers from Ambion, Inc. (TX, USA) according to the manufacturer's instructions. Briefly, the optimum amount of 18S primer and competitor for iNOS and COX-2 genes were determined. […] Finally, PCR products from each sample (10 μl) were resolved by electrophoresis in a 2% agarose gel (Fisher Biotech, NJ, USA) and stained with ethidium bromide. An image of the gel was captured after the appropriate exposure time and densitometric analysis was performed using image analysis software (Scion, NIH). For relative quantification, 18S ribosomal RNA was also amplified in same reaction as an internal control. Quantitative analysis of the expression of iNOS and COX-2 mRNA was performed by taking the ratio of the integrated density of each band to that of the 18S RNA band in the same sample.

[2] = ABTS free radical scavenging assay (TEAC); format: biochemical; conditions: Trolox equivalent of a 1.0 mM solution
Procedure: For the ABTS assay, a solution of ABTS in water was prepared at a final concentration of 7 mM. The ABTS radical cation (ABTS^.+) was produced by adding solid potassium persulfate to the ABTS solution sufficient to yield a final concentration of 2.45 mM potassium persulfate in the mixture and allowing the mixture to stand in the dark at room temperature for 12-16 hours before use. The ABTS^.+ solution was diluted with methanol to an absorbance of 0.70 at 734 nm. Stock solutions of each of the potential actives under investigation were diluted with ethanol to ensure 20-80% inhibition of the radical cation upon introduction of a 10 μL aliquot of the active solution to 1 ml of diluted ABTS^.+ solution. The absorbance was measured beginning exactly 1 min after initial mixing and thereafter up to 6 min. Trolox was used as the standard, and the activity of each of the potential actives was expressed as a Trolox Equivalent Antioxidant Capacity (TEAC) value. The TEAC value represents the millimolar concentration of a Trolox solution having an equivalent antioxidant capacity to a 1.0 mM solution of the potential active under investigation.

[3] = test system: iNOS protein expression in LPS-induced RAW 264.7 cells; experiment: Inhibition of LPS-induced iNOS protein expression (Western blotting); format: cell-based, mouse; conditions: treatment for 18 hrs, LPS 0.5 μg/mL
Description: (§2) To confirm whether the inhibition of NO production by kombo butter, kombo butter acid extract, and purified sargaquinoic acid (KB-1), sargachromenol (KB-2), and sargahydroquinoic acid (KB-3) was due to reduced enzymatic activity or protein expression of inducible nitric oxide synthase (iNOS), we investigated the effect of kombo butter and its constituents on iNOS protein expression by Western blotting. In addition to iNOS, we also studied the effect of kombo butter and its constituents on the expression of cyclooxygenase-2 (COX-2), an enzyme critical to the production of inflammatory prostaglandins and known to be activated in LPS-stimulated macrophages.
(§3) RAW 264.7 mouse macrophage cells were cultured in Dulbecco's Modified Eagle Medium (DMEM) supplemented with 15% fetal bovine serum (FBS) and an antibiotic and antimycotic mixture. Cell suspensions of 50,000 cells/well were cultured in quadruplicate in flat bottom microtiter plates for 12 hrs. […]
(§4) An equal amount of protein (40 μg) from each sample was resolved by SDS-polyacrylamide gel electrophoresis. […] Specific bands were detected using enhanced chemiluminescence's detection system (Amersham-Pharmacia Biotech, NJ, USA) and the membrane was exposed to X-ray film. […]

[4] = test system: iNOS mRNA expression in LPS-induced RAW 264.7 mouse macrophage cells; experiment: Inhibition of LPS-induced iNOS mRNA expression (RT-PCR); format: cell-based; conditions: 12 hrs
Procedure: as §1

[5] = DPPH free radical scavenging assay; format: biochemical; conditions: DPPH 1.0×10^−4 M in ethanol, half an hour, 517 nm
Procedure: Kombo butter, kombo butter acid extract, and purified sargaquinoic acid (KB-1), sargachromenol (KB-2), and sargahydroquinoic acid (KB-3) were tested for antioxidant activity by both the 2,2′-diphenylpicrylydrazyl (DPPH) and the 2,2′-azinobis-(3-ethylbenzothiazoline-6-sulfonic acid) (ABTS) free radical scavenging assays. A solution of DPPH in ethanol was prepared at a final concentration of 1.0×10^−4 M. Each of the potential actives under investigation was added to the DPPH solution at a number of different concentrations. The solutions were mixed, shaken vigorously and kept in the dark for half an hour. The absorbance of the samples was then measured at 517 nm with an HP Model 8453 spectrophotometer using a blank of ethanol without DPPH. All tests were run in triplicate and averaged. Differences among individual measurements were always less than 5% [26].

[6] = test system: TPA-induced mouse ear edema; conditions: compounds isolated from Roldana barba-johannis; compared with α-tocopherol; cited from earlier work
[7] = test system: COX-2 protein expression in LPS-induced RAW 264.7 cells; experiment: Inhibition of LPS-induced COX-2 protein expression (Western blotting); format: cell-based, mouse; conditions: treatment for 18 hrs, LPS 0.5 μg/mL
Description: as §2, §3, §4

[8] = compared with α-tocopherol and indomethacin; cited from earlier work
[9] = in vitro, compared with α-tocopherol; cited from earlier work

In the case of vitamin E [reference compound], the “inhibition of COX-2 mRNA expression (in words)” value [1] is reported as “neither of these compounds effected any inhibition”.
For `CC(C)=CCC/C(=C\CC/C(C)=C/CC/C(C)=C/CC1=CC(=O)C=C(C)C1=O)C(=O)O` [Sargaquinoic acid, sargaquinoic acid], the TEAC [2] was 0.15 mM, the “inhibition of iNOS protein expression” value [3] was “markedly inhibited” and the “inhibition of iNOS mRNA expression (in words)” value ([4]; 50 μM) was “exhibited inhibitory activity”.
In the case of `CC(C)=CCC/C(=C/CC/C(C)=C/CC/C(C)=C/Cc1cc(O)cc(C)c1O)C(=O)O` [Sargahydroquinoic acid, sargahydroquinoic acid], the “inhibition of COX-2 mRNA expression” value ([1]; 25 μM) is reported as about 12%, the “inhibition of COX-2 mRNA expression” value ([1]; 50 μM) is reported as about 19% and the “inhibition of iNOS mRNA expression” value ([4]; 25 μM) is reported as 31%. The “inhibition of iNOS mRNA expression” value ([4]; 50 μM) was 74%.
For `CC(C)=CCC/C(=C/CC/C(C)=C/CCC1(C)C=Cc2cc(O)cc(C)c2O1)C(=O)O` (centres unmarked) [Sargachromenol, sargachromenol], the TEAC [2] is given as 0.75 mM, the “DPPH free radical scavenging IC50” value [5] is given as 17.3 µg/mL and the anti-inflammatory activity [6] is given as “exceeded that of α-tocopherol”. For the same compound, the “inhibition of COX-2 protein expression” value [7] was “markedly inhibited”, the “antioxidant activity (DPPH radical scavenging)” value [8] was “better than those of either α-tocopherol or indomethacin” and the “inhibition of COX-2 mRNA expression” value ([1]; 50 μM) was 16%. The “inhibition of iNOS mRNA expression (in words)” value ([4]; 50 μM) was “exhibited inhibitory activity”.
For `CC(=CCCC(C)=CCc1cc(O)cc(C)c1O)CCC=C(C)CCC=C(C)C(=O)O` [kombic acid], the “antioxidant activity with respect to lipid peroxidation” value [9] is given as “either met or exceeded that of α-tocopherol”.
For `COc1ccc2c(c1)c(CC(=O)O)c(C)n2C(=O)c1ccc(Cl)cc1` [indomethacin, reference compound], the “inhibition of COX-2 mRNA expression (in words)” value [1] was “neither of these compounds effected any inhibition”.
